According to US7776856B2, “Pharmaceutical compounds” (F. Hoffman-La Roche AG, priority 2004, dated 2010):

System: Caco-2 cells
Test: Caco-2 permeability
Assay type: in vitro ADME
Details: Caco-2 bidirectional assay
Description: (iii) Caco-2 Permeability
Caco-2 cells were seeded onto Millipore Multiscreen plates at 1×10^5 cells/cm^2, and were cultured for 20 days. Assessment of compound permeability was subsequently conducted. The compounds were applied to the apical surface (A) of cell monolayers and compound permeation into the basolateral (B) compartment was measured. This was performed in the reverse direction (B-A) to investigate active transport. A permeability coefficient value, Papp, for each compound, a measure of the rate of permeation of the compound across the membrane, was calculated. Compounds were grouped into low Papp</=1.0×10^6 cm/s) or high Papp>/=1.0×10^6cm/s) absorption potential based on comparison with control compounds with established human absorption.
For assessment of a compound's ability to undergo active efflux, the ratio of basolateral (B) to apical (A) transport compared with A to B was determined. Values of B−A/A−B>/=1.0 indicated the occurrence of active cellular efflux. All of the compounds tested through the Caco-2 permeability screen had Papp values >/=[…].

For CN1CCN(Cc2cc3nc(-c4cccc(O)c4)nc(N4CCOCC4)c3s2)CC1 [PI540], the “B−A/A−B asymmetry index” value was “less than 1.0”.
